# Test system: rainbow trout (Oncorhynchus mykiss)
# Assay: Contribution of tissues to fish body burden
# Assay type: in vivo
# Details: for Contribution of Blood to the fish's body burden / Contribution of Gills to the fish's body burden / Contribution of Liver to the fish's body burden / Contribution of Mucus to the fish's body burden / Contribution of Other tissue (all apart from blood, liver, gills and skin; muscle concentration assumed) to body burden / Contribution of Skin to the fish's body burden: fraction; for % contribution to body burden, Gills / % contribution to body burden, Mucus / % contribution to body burden, Liver / % contribution to body burden, Skin / % contribution to body burden, Muscle: mean across fish, Figure 1; for % contribution to body burden, Liver / % contribution to body burden, Skin / % contribution to body burden, Muscle: Q10, Q14 maximum estimates; for % contribution to body burden, Muscle: includes all tissues not specifically analyzed
# From the text: To calculate the quantity of the test chemical in the different tissues, the amount of each tissue in the fish was estimated and multiplied by the concentration in that tissue. The test chemical quantities in the different tissues were then summed to give the body burden in each fish. The total weight of the fish and the weight of the liver and gills were available from the dissection (Table S16). For skin and mucus, the estimated outer surface area of the fish was used. We note that the distinction between mucus and skin is an operational one determined by the extraction method; mucus can be viewed as a more readily extracted fraction of the test chemical residues at the fish surface. The volume of blood was taken as 0.0495 mL g^–1 fish.[30] The remaining tissue (difference between the weight of the whole fish and the weight of liver, gills, skin, and blood) was assumed to have the concentration measured in the muscle. The contribution of the different tissues to the body burden is given for each fish in Table S17, and the average contribution across all fish is plotted in Figure 1. All of the tissues, with the exception of blood, contribute at least 10% of the body burden for at least half of the test chemicals. There is no consistent negative correlation between the fraction of chemical associated with blood, muscle, and liver (tissues where the residue originates entirely from systemic uptake) and alkyl chain length (a measure of hydrophobicity). Thus, although adsorption to fish surfaces appears to play a significant role, its contribution to body burden cannot be simply predicted from surfactant hydrophobicity. In the following, we examine uptake in individual tissues.
compound,measurement,setting,value
"CCCCCCCCCN(C)C [T9, N,N-dimethylnonylamine]",Contribution of Blood to the fish's body burden,Fish #1,0.045
same,Contribution of Gills to the fish's body burden,Fish #1,0.11
same,Contribution of Liver to the fish's body burden,Fish #1,0.08
same,Contribution of Mucus to the fish's body burden,Fish #1,0.12
same,"Contribution of Other tissue (all apart from blood, liver, gills and skin; muscle concentration assumed) to body burden",Fish #1,0.35
same,Contribution of Skin to the fish's body burden,Fish #1,0.30
same,Contribution of Blood to the fish's body burden,Fish #2,0.059
same,Contribution of Gills to the fish's body burden,Fish #2,0.14
same,Contribution of Liver to the fish's body burden,Fish #2,0.08
same,Contribution of Mucus to the fish's body burden,Fish #2,0.12
same,"Contribution of Other tissue (all apart from blood, liver, gills and skin; muscle concentration assumed) to body burden",Fish #2,0.39
same,Contribution of Skin to the fish's body burden,Fish #2,0.22
same,Contribution of Blood to the fish's body burden,Fish #3,0.075
same,Contribution of Liver to the fish's body burden,Fish #3,0.11
same,Contribution of Mucus to the fish's body burden,Fish #3,0.09
same,"Contribution of Other tissue (all apart from blood, liver, gills and skin; muscle concentration assumed) to body burden",Fish #3,0.43
same,Contribution of Skin to the fish's body burden,Fish #3,0.17
same,Contribution of Blood to the fish's body burden,Fish #4,0.046
same,Contribution of Gills to the fish's body burden,Fish #4,0.15
same,Contribution of Liver to the fish's body burden,Fish #4,0.04
same,Contribution of Mucus to the fish's body burden,Fish #4,0.14
same,"Contribution of Other tissue (all apart from blood, liver, gills and skin; muscle concentration assumed) to body burden",Fish #4,0.38
same,Contribution of Skin to the fish's body burden,Fish #4,0.24
same,Contribution of Blood to the fish's body burden,Fish #5,0.056
same,Contribution of Gills to the fish's body burden,Fish #5,0.14
same,Contribution of Liver to the fish's body burden,Fish #5,0.18
same,Contribution of Mucus to the fish's body burden,Fish #5,0.08
same,"Contribution of Other tissue (all apart from blood, liver, gills and skin; muscle concentration assumed) to body burden",Fish #5,0.35
same,Contribution of Skin to the fish's body burden,Fish #5,0.19
same,Contribution of Blood to the fish's body burden,Fish #6,0.062
same,Contribution of Gills to the fish's body burden,Fish #6,0.11
same,Contribution of Liver to the fish's body burden,Fish #6,0.26
same,Contribution of Mucus to the fish's body burden,Fish #6,0.08
same,"Contribution of Other tissue (all apart from blood, liver, gills and skin; muscle concentration assumed) to body burden",Fish #6,0.33
same,Contribution of Skin to the fish's body burden,Fish #6,0.17
same,Contribution of Blood to the fish's body burden,Mean,0.057
same,Contribution of Gills to the fish's body burden,Mean,0.13
same,Contribution of Liver to the fish's body burden,Mean,0.13
same,Contribution of Mucus to the fish's body burden,Mean,0.10
same,"Contribution of Other tissue (all apart from blood, liver, gills and skin; muscle concentration assumed) to body burden",Mean,0.37
same,Contribution of Skin to the fish's body burden,Mean,0.21
same,"Share of body burden in interior tissues (blood, liver, and muscle)",in vivo,more than half
same,"% contribution to body burden, Gills",,13%
same,"% contribution to body burden, Mucus",,10%
same,"% contribution to body burden, Liver",,13%
same,"% contribution to body burden, Skin",,21%
same,"% contribution to body burden, Muscle",,37%
"CCCCCCCCCCCCCN(C)C [T13, N,N-dimethyltridecylamine]",Contribution of Blood to the fish's body burden,Fish #1,0.038
same,Contribution of Gills to the fish's body burden,Fish #1,0.28
same,Contribution of Liver to the fish's body burden,Fish #1,0.05
same,Contribution of Mucus to the fish's body burden,Fish #1,0.11
same,"Contribution of Other tissue (all apart from blood, liver, gills and skin; muscle concentration assumed) to body burden",Fish #1,0.36
same,Contribution of Skin to the fish's body burden,Fish #1,0.17
same,Contribution of Blood to the fish's body burden,Fish #2,0.031
same,Contribution of Gills to the fish's body burden,Fish #2,0.26
same,Contribution of Liver to the fish's body burden,Fish #2,0.09
same,Contribution of Mucus to the fish's body burden,Fish #2,0.09
same,"Contribution of Other tissue (all apart from blood, liver, gills and skin; muscle concentration assumed) to body burden",Fish #2,0.29
same,Contribution of Skin to the fish's body burden,Fish #2,0.24
same,Contribution of Blood to the fish's body burden,Fish #3,0.038
same,Contribution of Liver to the fish's body burden,Fish #3,0.11
same,Contribution of Mucus to the fish's body burden,Fish #3,0.07
same,"Contribution of Other tissue (all apart from blood, liver, gills and skin; muscle concentration assumed) to body burden",Fish #3,0.31
same,Contribution of Skin to the fish's body burden,Fish #3,0.22
same,Contribution of Blood to the fish's body burden,Fish #4,0.023
same,Contribution of Gills to the fish's body burden,Fish #4,0.22
same,Contribution of Liver to the fish's body burden,Fish #4,0.21
same,Contribution of Mucus to the fish's body burden,Fish #4,0.07
same,"Contribution of Other tissue (all apart from blood, liver, gills and skin; muscle concentration assumed) to body burden",Fish #4,0.32
same,Contribution of Skin to the fish's body burden,Fish #4,0.17
same,Contribution of Blood to the fish's body burden,Fish #5,0.025
same,Contribution of Gills to the fish's body burden,Fish #5,0.30
same,Contribution of Liver to the fish's body burden,Fish #5,0.07
same,Contribution of Mucus to the fish's body burden,Fish #5,0.09
same,"Contribution of Other tissue (all apart from blood, liver, gills and skin; muscle concentration assumed) to body burden",Fish #5,0.31
same,Contribution of Skin to the fish's body burden,Fish #5,0.21
same,Contribution of Blood to the fish's body burden,Fish #6,0.042
same,Contribution of Gills to the fish's body burden,Fish #6,0.24
same,Contribution of Liver to the fish's body burden,Fish #6,0.06
same,Contribution of Mucus to the fish's body burden,Fish #6,0.11
same,"Contribution of Other tissue (all apart from blood, liver, gills and skin; muscle concentration assumed) to body burden",Fish #6,0.29
same,Contribution of Skin to the fish's body burden,Fish #6,0.25
same,Contribution of Blood to the fish's body burden,Mean,0.033
same,Contribution of Gills to the fish's body burden,Mean,0.26
same,Contribution of Liver to the fish's body burden,Mean,0.10
same,Contribution of Mucus to the fish's body burden,Mean,0.09
same,"Contribution of Other tissue (all apart from blood, liver, gills and skin; muscle concentration assumed) to body burden",Mean,0.31
same,Contribution of Skin to the fish's body burden,Mean,0.21
same,"% contribution to body burden, Gills",,26%
same,"% contribution to body burden, Mucus",,9%
same,"% contribution to body burden, Liver",,10%
same,"% contribution to body burden, Skin",,21%
same,"% contribution to body burden, Muscle",,31%

# — publication PMC7343282, “Tissue Distribution of Several Series of Cationic Surfactants in Rainbow Trout (Oncorhynchus mykiss) Following Exposure via Water” (Environmental Science & Technology, 2020)
